{"source": "patent US20040121031A1", "about": "“Novel topical skin care and nutraceutical applications of Glabridin or extracts containing a defined amount (4-90%) of Glabridin” (priority 2002, published 2004)", "test": "Ease of solubility in cosmetically acceptable solvents", "format": "physicochemical", "settings": "in contrast to Ursolic acid", "excerpt": "In order to formulate an effective cosmetic product, the individual ingredients have to be solublized in cosmetically acceptable solvents. The following table indicates the ease of solubility of glabridin and the licorice extract in contrast to Ursolic acid, a terpenoid compound used in cosmetics for similar claims.", "data": [{"compound": "CC1(C)C=Cc2c(ccc3c2OC[C@@H](c2ccc(O)cc2O)C3)O1", "note": "[glabridin, Glabridin]", "values": [{"measurement": "ease of solubility", "result": "much more easily soluble than Ursolic acid"}]}]}
